{
  "source": "patent US9266817B2",
  "about": "“Catecholamine derivatives for obesity and neurological disorders” (EMORY UNIVERSITY, priority 2009, dated 2016)",
  "key": {"TrkA": {"target": "T1, TrkA (Mus musculus, UniProt Q3UFB7)", "T1 construct": "from tissue; host or cells: mouse brain", "T1 sequence (Q3UFB7 34-799)": "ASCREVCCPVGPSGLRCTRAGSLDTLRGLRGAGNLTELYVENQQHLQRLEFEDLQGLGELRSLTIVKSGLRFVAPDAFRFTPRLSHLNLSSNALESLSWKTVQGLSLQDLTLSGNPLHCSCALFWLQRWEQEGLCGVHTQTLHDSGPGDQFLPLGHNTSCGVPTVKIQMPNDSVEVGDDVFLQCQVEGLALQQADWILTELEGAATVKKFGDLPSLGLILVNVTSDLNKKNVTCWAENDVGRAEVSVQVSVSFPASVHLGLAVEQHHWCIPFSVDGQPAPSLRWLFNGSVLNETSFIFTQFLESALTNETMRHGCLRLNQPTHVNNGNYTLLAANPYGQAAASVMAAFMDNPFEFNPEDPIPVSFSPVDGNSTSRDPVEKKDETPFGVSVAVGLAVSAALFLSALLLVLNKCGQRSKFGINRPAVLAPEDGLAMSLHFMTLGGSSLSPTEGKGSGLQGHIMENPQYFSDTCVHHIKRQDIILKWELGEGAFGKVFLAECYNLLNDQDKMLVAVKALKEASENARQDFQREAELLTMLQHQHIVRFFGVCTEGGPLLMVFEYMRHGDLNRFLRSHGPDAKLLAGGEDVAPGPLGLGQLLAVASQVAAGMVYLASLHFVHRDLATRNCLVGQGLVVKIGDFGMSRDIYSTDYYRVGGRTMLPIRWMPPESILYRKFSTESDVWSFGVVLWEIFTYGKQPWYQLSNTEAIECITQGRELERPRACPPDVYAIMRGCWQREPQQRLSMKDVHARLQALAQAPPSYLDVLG", "experiment": "TrkA activation in mouse brain after DOPS (control)", "assay_type": "in vivo", "details": "wild-type and DBH -/- mice", "experimental": "Mice lacking dopamine β-hydroxylase (DBH) are unable to synthesize noradrenaline (essential for mouse fetal development) or adrenaline and die in utero. Administration of DOPS, which can be converted to noradrenaline in the absence of DBH, rescued DBH −/− mice from dying. Mature DBH −/− mice can live without supplemental of DOPS. […] In wild-type control mice, DOPS induced TrkB activation in a time dependent manner with the maximal effect at 12 hours. In contrast, DOPS-triggered TrkB activation occurred at 1 hour, peaked at 5 hours, and decreased at 12 hours in DBH −/− mice. As a control, TrkA was not activated."}, "TrkB [1]": {"test_system": "TrkB", "assay_type": "in vivo"}, "BDNF": {"test_system": "BDNF", "experiment": "Quantitative analysis of BDNF in mouse brain during drug treatment", "assay_type": "in vivo, mice", "details": "during the drug treatment"}, "TrkB [2]": {"target": "T2, TrkB (Mus musculus, UniProt P15209, F616A)", "T2 construct": "from tissue; host or cells: mouse brain", "T2 sequence (P15209 32-821 F616A)": "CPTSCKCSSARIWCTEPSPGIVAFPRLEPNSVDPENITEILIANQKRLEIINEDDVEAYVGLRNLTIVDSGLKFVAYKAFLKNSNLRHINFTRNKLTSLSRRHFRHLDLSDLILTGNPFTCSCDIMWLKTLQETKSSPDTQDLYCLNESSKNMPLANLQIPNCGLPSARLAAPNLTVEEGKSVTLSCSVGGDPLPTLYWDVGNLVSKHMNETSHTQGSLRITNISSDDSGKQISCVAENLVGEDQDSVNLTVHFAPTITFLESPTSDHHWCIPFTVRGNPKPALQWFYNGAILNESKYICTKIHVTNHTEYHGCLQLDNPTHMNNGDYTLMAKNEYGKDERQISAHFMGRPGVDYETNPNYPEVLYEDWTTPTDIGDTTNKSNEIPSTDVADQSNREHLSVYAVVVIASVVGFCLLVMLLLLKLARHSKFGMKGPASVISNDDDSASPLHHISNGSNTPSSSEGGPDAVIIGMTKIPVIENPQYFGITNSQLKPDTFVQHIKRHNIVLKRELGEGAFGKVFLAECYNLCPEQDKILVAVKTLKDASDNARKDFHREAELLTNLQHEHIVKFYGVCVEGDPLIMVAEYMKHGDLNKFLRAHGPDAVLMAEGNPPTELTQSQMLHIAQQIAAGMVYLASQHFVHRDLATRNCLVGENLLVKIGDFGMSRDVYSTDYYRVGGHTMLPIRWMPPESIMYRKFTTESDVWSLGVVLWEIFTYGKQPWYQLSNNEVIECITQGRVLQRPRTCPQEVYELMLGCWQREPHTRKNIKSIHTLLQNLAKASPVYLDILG", "assay_type": "in vivo", "details": "L-DOPA 50 mg/kg, DOPS 100 mg/kg, 1NMPP1 50 μM", "experimental": "The DOPS concentration was 20 mg/ml, the vitamin C concentration was 2 mg/ml, and the benserazide concentration was 5 mg/ml. The vitamin C prevents oxidation of the DOPS, and the benserazide is a peripheral inhibitor of AADC and restricts the production of NE from DOPS to the brain. The compounds were added to a tube, and 20 μl of 10 M HCl was added to each ml of DOPS solution. The appropriate amount of water was added to the tube, and then HCl was added to achieve the desired volume. For example, to make 1 mL of a DOPS solution, 20 mg DOPS, 2 mg vitamin C, and 5 mg benserazide were added to a tube, followed by 980 μL of water and 20 μL of 10 M HCl. The solution was vortexed until all DOPS was dissolved. The DOPS solution was injected subcutaneously in a volume of 50 μl/g of mouse. The appropriate amount of DOPS solution was pipetted into a clean tube, followed by the amount of 10 M NaOH required to exactly neutralize the HCl. The solution was then shaken. The amount of 10 M NaOH is the weight of the mouse in microliters. For example, for a 20 g mouse, pipet 1 ml of the DOPS solution is pipetted into a tube and 20 μL of 10 M NaOH is added. For a 30 g mouse, 1.5 mL of the DOPS solution is pipetted into a tube and 30 μl of 10 M NaOH is added. Two to four month-old TrkBF616A mice were pretreated with 1NMPP1 in drinking water (50 μM) 1 day before L-DOPA (50 mg/kg) or DOPS (100 mg/kg) intraperitoneal injection. At times of 2 hours and 5 hours after drug administration, the L-DOPA or DOPS-treated mice were sacrificed, respectively. The brain lysates were prepared and analyzed by immunoblotting against anti-phospho-TrkB Y816 and TrkA Y794 antibodies.\nTrkB F616A mice were pretreated with 1NMPP1 (50 μM) before L-DOPA or DOPS administration."}, "TrkB [3]": {"target": "T3, TrkB (Rattus norvegicus, UniProt Q63604)", "T3 construct": "endogenous in cells; host or cells: primary rat cortical and hippocampal neurons", "T3 sequence (Q63604 32-821)": "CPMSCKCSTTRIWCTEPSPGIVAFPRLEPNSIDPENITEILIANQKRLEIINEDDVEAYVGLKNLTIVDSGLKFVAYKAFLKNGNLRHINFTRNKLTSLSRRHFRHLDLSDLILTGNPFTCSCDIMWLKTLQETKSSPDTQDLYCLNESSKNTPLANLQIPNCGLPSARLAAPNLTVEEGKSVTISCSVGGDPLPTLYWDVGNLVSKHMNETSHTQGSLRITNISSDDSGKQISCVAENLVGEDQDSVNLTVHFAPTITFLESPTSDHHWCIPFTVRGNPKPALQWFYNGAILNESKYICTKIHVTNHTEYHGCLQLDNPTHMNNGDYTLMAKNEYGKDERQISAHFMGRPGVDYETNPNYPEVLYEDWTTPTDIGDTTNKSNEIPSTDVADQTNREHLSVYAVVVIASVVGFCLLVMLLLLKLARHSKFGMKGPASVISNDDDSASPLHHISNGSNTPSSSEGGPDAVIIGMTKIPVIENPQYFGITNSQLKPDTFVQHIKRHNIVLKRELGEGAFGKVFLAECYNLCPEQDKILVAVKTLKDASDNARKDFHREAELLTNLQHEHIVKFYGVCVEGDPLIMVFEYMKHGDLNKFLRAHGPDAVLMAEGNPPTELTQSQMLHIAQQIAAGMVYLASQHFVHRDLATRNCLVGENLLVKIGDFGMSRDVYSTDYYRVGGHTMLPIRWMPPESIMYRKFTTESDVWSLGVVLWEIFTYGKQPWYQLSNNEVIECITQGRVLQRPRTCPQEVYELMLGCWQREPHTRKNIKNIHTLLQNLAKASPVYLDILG", "experiment": "Immunoblotting of TrkB phosphorylation in primary cortical neurons treated with catecholamines", "assay_type": "cell-based", "experimental": "Primary cultured rat cortical neurons were prepared as follows. E17 rat pups were decapitated and cortex was extirpated, cross chopped and suspended by pipetting for separation in 5% fetal calf serum (FCS), 5% horse serum (HS) DMEM. The cell suspension was then centrifuged at 250×g for 5 min. This operation was repeated. Cells were seeded into polyethyleneimine-coated 10 cm^2 dishes and 12-well plates including coated-coverslips and incubated at 37° C. in 5% CO2/95% air. After 3 hours, the culture medium was changed to Neurobasal containing B-27 supplement (Invitrogen; Carlsbad, Calif.) and incubated for 4 days. For maintenance, half of the culture medium was changed to fresh Neurobasal/B27 in every 4 days. After 1 week, the dished cultured neurons were ready for use.\n(§1) To explore whether monoamine neurotransmitters, including catecholamines (see, e.g., FIG. 1), could stimulate TrkB activation, hippocampal neurons were treated with 300 nM of catecholamines, serotonin, and melatonin for 30 min."}, "TrkB [4]": {"target": "T4, TrkB (Homo sapiens, UniProt Q16620)", "experiment": "TrkB activation by catecholamines in TrkB-transfected HEK293 cells pretreated with OCT3 inhibitor", "assay_type": "cell-based", "parameters": "expressed in transfected cells; host or cells: HEK293", "details": "2 μM, 30 minutes pretreatment, catecholamines 15 minutes", "experimental": "HEK293 cells were transfected with TrkB and pretreated with the OCT3 inhibitor decynium (2 μM) for 30 minutes, followed by stimulation with catecholamines for 15 minutes. The cell lysates were monitored by immunoblotting with anti-p-TrkB-Y-816. […] An equal amount of TrkB was expressed in each sample (FIG. 22A, lower panel)."}, "TrkB [5]": {"target": "T4, TrkB", "experiment": "TrkB dimerization, co-immunoprecipitation of GST-TrkB and HA-TrkB in HEK293 cells", "assay_type": "cell-based", "parameters": "GST; HA; expressed in transfected cells; host or cells: HEK293", "details": "15 minutes", "experimental": "To determine whether catecholamines bind TrkB directly, an in vitro binding assay was conducted with purified ECD (extracellular domain) and ICD (intracellular domain) proteins from Trk receptors and ^3H-catecholamines. […] To determine whether the binding by catecholamines to TrkB receptor caused dimerization, GST-TrkB was co-transfected into HEK293 cells with HA-TrkB, followed by BDNF or monoamines treatment for 15 minutes."}, "TrkB [6]": {"target": "T3, TrkB", "experiment": "TrkB activation in cortical neurons after pretreatment with antibodies, receptor antagonists, transporter inhibitors or EDTA (anti-p-TrkB-Y-816 immunoblot)", "assay_type": "cell-based", "details": "BDNF-IgG 30 minutes, then BDNF 10 ng/ml or catecholamines 100 nM, 15 minutes", "description": "(§2) Both antidepressants and exercise increase hippocampal BDNF mRNA expression through enhanced 5-HT and/or NE neurotransmission (Siuciak et al., Pharmacol. Biochem. Behav., 56:131-137, 1997; Dias et al., Neuropharmacology, 45:553-563, 2003; Ivy et al., Pharmacol. Biochem. Behav., 75:81-88, 2003; Garza et al., Pharmacol. Biochem. Behav., 77:209-220, 2004). If catecholamines activated TrkB signaling indirectly by promoting BDNF generation, then scavenging BDNF with its specific antibody would be expected to diminish catecholamines-mediated activation of TrkB. Cultured cortical neurons were pretreated with BDNF-IgG for 30 minutes followed by exposure to BDNF (10 ng/ml) or catecholamines (100 nM) for 15 minutes. […] It was then determined whether catecholamines could activate TrkB in neurons cultured from mice carrying a null mutation of BDNF.\nTo further investigate the specificity of catecholamines in inducing TrkB activation, cortical neurons were pretreated with control IgG or norepinephrine IgG, a rabbit polyclonal antibody for norepinephrine, followed by catecholamines.\nIt was then determined whether catecholamines could activate TrkB in neurons cultured from mice carrying a null mutation of NET.\n(§3) The cell lysates were analyzed by immunoblotting with anti-p-TrkB-Y-816.\nas §3\nA group of primary cortical neurons were pretreated with 1 mM EDTA, and another group of primary cortical neurons were not pretreated. Both groups of primary cortical neurons were then treated with either Zn (100 μM) or a catecholamine (100 nM) for 15 minutes. The neuronal cell lysates were analyzed by immunoblotting with anti-p-TrkB-Y-816 antibody."}, "TrkB [7]": {"target": "T3, TrkB", "experiment": "Immunofluorescent staining with anti-phospho-TrkB Y816 in primary hippocampal neurons", "assay_type": "cell-based", "details": "300 nM, 30 min", "experimental": "Primary Rat Cortical and Hippocampal Neuron Cultures\nPrimary hippocampal neurons were seeded on poly-L-lysine coated coverslips in a 12-well plate. After 7 days in vitro, the neurons were treated with 100 ng/ml BDNF or variety of neurotransmitters and 7,8-dihydroxyflavone compound (500 nM) for 30 min, and then washed with PBS. Cells were fixed with 3% formaldehyde in PBS at room temperature for 15 min. The cells were then permeabilized and blocked by 0.4% Triton X-100 and 2% FBS in PBS at room temperature for 15 minutes, washed with PBS three times and treated with anti-MAP2 (1:200) and anti-phospho-TrkB antibodies (1:100). After staining with FITC- or Rhodamine-conjugated secondary antibody, the coverslips were mounted on slides. Fluorescent images were taken by OLYMPUS IX71 fluorescence microscope (Olympus; Center Valley, Pa.).\nas §1"}, "TrkB [8]": {"target": "T5, TrkB (Mus musculus, UniProt P15209)", "T5 construct": "endogenous in cells; host or cells: primary cortical neurons from BDNF-null, TrkB +/- cross, TrkC knockout and NET -/- mice", "T5 sequence (P15209 32-821)": "as the sequence (P15209 32-821 F616A) above, with A585F counted along it", "experiment": "TrkB activation in cortical neurons cultured from BDNF-null mice", "assay_type": "cell-based", "details": "15 min", "description": "as §2"}},
  "data": [
    {"molecule": "N[C@H](C(=O)O)[C@H](O)c1ccc(O)c(O)c1", "note": "[DOPS, dihydroxyphenylserine]", "values": [
      {"measurement": "TrkA activation in mouse brain", "setting": "TrkA", "result": "not activated"},
      {"measurement": "TrkB activation in BDNF -/- cortex", "setting": "TrkB [1]; BDNF conditional knockout mice, compared to vehicle control", "result": "strongly triggered TrkB activation"},
      {"measurement": "Time at which TrkB activation occurred", "setting": "TrkB [1]; DBH -/- mice, intraperitoneal", "result": 1, "unit": "h"},
      {"measurement": "Time at which TrkB activation peaked", "setting": "TrkB [1]; DBH -/- mice, intraperitoneal", "result": 5, "unit": "h"},
      {"measurement": "TrkB activation at 12 hours", "setting": "TrkB [1]; DBH -/- mice, intraperitoneal", "result": "decreased"},
      {"measurement": "Time of maximal effect on TrkB activation", "setting": "TrkB [1]; wild-type control mice, intraperitoneal", "result": 12, "unit": "h"},
      {"measurement": "BDNF in mouse brain", "setting": "BDNF", "result": "not significantly altered"},
      {"measurement": "TrkB tyrosine phosphorylation/activation in mice", "setting": "TrkB [2]", "result": "provoked evident TrkB activation"},
      {"measurement": "TrkB activation in primary cultured neurons", "setting": "TrkB [3]", "result": "rapidly induced TrkB activation"}
    ]},
    {"molecule": "CCN1/C(=C/c2ccc3ccccc3[n+]2CC)C=Cc2ccccc21.[I-]", "note": "[decynium]", "values": [
      {"measurement": "Effect of OCT3 inhibitor on TrkB activation by catecholamines", "setting": "TrkB [4]", "result": "failed to inhibit"}
    ]},
    {"molecule": "BDNF: Brain-derived neurotrophic factor, natural ligand of TrkB (protein, UniProt P23560 19-247, looked up) Neurotrophic factor BDNF …: APMKEANIRGQGGLAYPGVRTHGTLESVNGPKAGSRGLTSLADTFEHVIEELLDEDQKVRPNEENNKDADLYTSRVMLSSQVPLEPPLLFLLEEYKNYLDAANMSMRVRRHSDPARRGELSVCDSISEWVTAADKKTAVDMSGGTVTVLEKVPVSKGQLKQYFYETKCNPMGYTKEGCRGIDKRHWNSQCRTTQSYVRALTMDSKKRIGWRFIRIDTSCVCTLTIKRGR", "values": [
      {"measurement": "TrkB homodimerization", "setting": "TrkB [5]", "result": "elicited TrkB homodimerization"},
      {"measurement": "Effect of BDNF-IgG pretreatment on phosphorylation of TrkB induced by the substance", "setting": "TrkB [6]", "result": "abolished"},
      {"measurement": "TrkB tyrosine phosphorylation (immunofluorescent staining)", "setting": "TrkB [7]", "result": "strongly triggered TrkB tyrosine phosphorylation"},
      {"measurement": "Activation of TrkB in BDNF-null cortical neurons", "setting": "TrkB [8]", "result": "evident activation of TrkB"}
    ]}
  ]
}
